Legend:
[1] = target: T1, Aurora kinase A (Homo sapiens, UniProt O14965); test: Inhibition of recombinant full length human Aurora A using LRRASLG as substrate incubated for 40 mins in presence of [gamma-33ATP] by radiometric scintillation counting method
T1 sequence (O14965 whole entry): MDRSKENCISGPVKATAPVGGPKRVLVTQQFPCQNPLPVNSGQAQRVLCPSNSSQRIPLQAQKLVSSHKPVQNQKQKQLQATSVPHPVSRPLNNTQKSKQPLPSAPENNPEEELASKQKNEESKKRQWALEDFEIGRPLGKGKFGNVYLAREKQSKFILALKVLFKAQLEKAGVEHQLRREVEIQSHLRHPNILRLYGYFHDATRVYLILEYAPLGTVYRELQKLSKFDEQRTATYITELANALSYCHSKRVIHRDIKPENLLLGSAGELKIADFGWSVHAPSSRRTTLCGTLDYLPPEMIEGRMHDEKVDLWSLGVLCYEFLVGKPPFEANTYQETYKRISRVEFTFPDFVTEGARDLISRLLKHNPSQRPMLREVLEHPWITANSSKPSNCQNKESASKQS

[2] = target: T2, Beta-adrenergic receptor kinase 1 (Homo sapiens, UniProt P25098); test: Inhibition of human GRK2 using casein as substrate in presence of [gamma33P]ATP by radiometric hotspot kinase assay
T2 sequence (P25098 whole entry): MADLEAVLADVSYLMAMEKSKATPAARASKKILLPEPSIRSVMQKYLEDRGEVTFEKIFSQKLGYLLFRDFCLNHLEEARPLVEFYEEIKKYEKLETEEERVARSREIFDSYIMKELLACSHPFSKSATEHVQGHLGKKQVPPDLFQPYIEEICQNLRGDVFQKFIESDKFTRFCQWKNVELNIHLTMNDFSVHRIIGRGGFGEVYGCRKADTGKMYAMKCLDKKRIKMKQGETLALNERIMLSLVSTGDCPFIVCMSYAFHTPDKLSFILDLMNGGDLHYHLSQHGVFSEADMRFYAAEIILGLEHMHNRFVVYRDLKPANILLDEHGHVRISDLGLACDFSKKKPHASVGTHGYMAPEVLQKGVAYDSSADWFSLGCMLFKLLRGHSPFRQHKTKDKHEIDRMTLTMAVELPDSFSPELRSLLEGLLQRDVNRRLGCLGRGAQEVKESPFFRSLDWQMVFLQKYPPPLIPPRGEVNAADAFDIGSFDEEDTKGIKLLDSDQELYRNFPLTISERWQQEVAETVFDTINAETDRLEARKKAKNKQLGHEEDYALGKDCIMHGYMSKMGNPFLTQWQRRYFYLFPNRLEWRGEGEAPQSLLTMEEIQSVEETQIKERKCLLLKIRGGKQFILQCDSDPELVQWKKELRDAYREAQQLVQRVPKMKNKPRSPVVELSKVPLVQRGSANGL

[3] = target: Focal adhesion kinase 1 (Homo sapiens, UniProt Q05397); test: Inhibition of recombinant human FAK (411 to 686 residues) using EEEEYEEEEEEYY as substrate incubated for 40 mins in presence of [gamma-33ATP] by scintillation counting based radiometry assay
[4] = target: Death-associated protein kinase 3 (Homo sapiens, UniProt O43293); test: Inhibition of recombinant human ZIPK (1 to 290 residues) using KKLNRTLSFAEPG substrate incubated for 40 mins in presence of [gamma33P]ATP by scintillation counting based radiometry assay
[5] = target: T3, Rhodopsin kinase GRK1 (Homo sapiens, UniProt Q15835); test: Inhibition of human GRK1 using casein as substrate in presence of [gamma33P]ATP by radiometric hotspot kinase assay
T3 sequence (Q15835 whole entry): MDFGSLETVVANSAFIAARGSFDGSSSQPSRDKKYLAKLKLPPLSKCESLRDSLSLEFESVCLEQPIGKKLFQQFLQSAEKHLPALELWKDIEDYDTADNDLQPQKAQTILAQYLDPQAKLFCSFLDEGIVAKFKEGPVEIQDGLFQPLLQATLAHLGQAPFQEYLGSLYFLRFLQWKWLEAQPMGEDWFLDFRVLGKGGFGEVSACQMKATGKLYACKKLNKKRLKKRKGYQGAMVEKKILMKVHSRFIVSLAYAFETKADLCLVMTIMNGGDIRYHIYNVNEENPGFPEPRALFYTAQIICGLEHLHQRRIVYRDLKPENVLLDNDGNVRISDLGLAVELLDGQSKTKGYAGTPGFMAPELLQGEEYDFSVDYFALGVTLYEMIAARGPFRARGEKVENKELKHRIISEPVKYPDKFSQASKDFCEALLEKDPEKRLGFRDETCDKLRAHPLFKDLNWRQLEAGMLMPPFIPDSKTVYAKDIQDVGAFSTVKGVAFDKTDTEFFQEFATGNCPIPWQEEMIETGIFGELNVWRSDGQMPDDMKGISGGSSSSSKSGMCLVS

[6] = target: T4, G protein-coupled receptor kinase 3 (Homo sapiens, UniProt P35626); test: Inhibition of human GRK3 using casein as substrate in presence of [gamma33P]ATP by radiometric hotspot kinase assay
T4 sequence (P35626 whole entry): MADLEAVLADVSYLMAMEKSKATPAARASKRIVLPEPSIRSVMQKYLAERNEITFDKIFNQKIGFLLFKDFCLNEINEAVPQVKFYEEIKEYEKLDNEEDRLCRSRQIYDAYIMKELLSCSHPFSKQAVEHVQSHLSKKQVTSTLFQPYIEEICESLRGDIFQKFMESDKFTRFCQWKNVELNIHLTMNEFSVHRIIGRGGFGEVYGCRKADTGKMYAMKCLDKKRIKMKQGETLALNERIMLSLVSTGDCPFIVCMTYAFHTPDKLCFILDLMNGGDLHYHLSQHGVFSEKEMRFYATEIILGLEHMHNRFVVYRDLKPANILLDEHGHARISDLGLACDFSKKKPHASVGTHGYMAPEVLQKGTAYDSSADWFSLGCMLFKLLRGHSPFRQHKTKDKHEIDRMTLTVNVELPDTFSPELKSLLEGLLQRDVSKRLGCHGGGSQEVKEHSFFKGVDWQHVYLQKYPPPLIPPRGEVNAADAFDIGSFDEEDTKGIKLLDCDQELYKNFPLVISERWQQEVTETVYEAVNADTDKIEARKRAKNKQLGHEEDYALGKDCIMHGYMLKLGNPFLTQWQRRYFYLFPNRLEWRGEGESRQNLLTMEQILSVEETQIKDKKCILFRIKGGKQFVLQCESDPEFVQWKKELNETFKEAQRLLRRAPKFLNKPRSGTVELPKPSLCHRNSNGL

[7] = target: G protein-coupled receptor kinase 6 (Homo sapiens, UniProt P43250); test: Binding affinity to FLAG-tagged GRK6 in human KMS11 cells incubated for […] by ITDR assay; format: cell-based, KMS-11
G protein-coupled receptor kinase 6, sequence (P43250 whole entry): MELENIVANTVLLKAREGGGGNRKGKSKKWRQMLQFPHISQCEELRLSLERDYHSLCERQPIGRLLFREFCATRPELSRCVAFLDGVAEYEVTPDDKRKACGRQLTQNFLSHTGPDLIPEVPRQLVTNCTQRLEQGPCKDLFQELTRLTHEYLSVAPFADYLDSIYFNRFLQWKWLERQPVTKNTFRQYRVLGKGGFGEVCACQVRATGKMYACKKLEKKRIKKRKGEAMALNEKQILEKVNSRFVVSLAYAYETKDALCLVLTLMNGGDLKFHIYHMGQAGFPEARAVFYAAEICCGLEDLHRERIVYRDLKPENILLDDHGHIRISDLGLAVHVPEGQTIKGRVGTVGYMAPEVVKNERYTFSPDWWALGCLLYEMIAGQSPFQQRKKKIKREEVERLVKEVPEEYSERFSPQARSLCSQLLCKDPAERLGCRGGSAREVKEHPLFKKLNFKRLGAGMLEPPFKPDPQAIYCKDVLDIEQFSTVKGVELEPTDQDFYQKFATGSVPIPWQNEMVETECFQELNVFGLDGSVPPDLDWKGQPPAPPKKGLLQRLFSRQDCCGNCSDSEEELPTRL

Death-associated protein kinase 3, sequence (O43293 whole entry, the tested form may be a part): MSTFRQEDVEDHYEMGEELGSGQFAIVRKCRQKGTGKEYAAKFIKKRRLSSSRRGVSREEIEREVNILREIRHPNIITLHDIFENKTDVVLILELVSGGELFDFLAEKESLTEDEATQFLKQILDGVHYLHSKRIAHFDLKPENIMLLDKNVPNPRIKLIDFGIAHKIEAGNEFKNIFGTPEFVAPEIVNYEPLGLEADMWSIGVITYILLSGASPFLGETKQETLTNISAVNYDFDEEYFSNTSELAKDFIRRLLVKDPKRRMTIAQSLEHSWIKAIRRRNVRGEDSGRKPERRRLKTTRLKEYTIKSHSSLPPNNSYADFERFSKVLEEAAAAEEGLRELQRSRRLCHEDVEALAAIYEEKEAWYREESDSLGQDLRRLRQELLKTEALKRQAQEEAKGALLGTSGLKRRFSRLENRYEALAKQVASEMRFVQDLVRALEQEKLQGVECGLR
Focal adhesion kinase 1, sequence (Q05397 whole entry, the tested form may be a part): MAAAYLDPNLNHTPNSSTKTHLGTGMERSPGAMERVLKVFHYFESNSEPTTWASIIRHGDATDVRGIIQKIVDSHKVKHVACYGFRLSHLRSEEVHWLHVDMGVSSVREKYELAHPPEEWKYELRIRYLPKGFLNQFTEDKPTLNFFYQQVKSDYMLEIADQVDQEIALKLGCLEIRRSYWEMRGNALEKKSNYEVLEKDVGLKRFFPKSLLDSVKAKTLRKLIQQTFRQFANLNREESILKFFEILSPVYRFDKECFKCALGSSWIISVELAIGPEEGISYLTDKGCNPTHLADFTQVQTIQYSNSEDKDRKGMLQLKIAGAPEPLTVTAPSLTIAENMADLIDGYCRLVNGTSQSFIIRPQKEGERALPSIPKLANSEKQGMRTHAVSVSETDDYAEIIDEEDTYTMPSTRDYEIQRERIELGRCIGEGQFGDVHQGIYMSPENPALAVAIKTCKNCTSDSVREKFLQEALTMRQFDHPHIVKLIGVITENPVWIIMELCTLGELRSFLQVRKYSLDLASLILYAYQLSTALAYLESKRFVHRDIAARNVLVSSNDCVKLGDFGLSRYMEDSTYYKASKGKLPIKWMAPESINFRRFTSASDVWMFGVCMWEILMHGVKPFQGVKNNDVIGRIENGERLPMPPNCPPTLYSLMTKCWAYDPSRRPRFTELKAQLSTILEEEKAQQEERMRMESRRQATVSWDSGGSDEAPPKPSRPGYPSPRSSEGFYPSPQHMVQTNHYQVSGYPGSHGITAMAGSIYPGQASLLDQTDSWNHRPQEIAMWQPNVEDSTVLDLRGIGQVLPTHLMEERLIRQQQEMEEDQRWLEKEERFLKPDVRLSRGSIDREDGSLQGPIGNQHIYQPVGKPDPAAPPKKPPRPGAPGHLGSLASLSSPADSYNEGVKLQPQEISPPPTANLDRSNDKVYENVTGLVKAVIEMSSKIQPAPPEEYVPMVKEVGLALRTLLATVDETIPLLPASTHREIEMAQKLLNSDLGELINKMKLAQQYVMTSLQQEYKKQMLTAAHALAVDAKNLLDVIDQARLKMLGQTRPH

## CCc1cc(Nc2nc(NCc3ccc(Cl)cc3OC)nc3cccc(OC)c23)n[nH]1
[1]
  IC50: 8900 nM
[2]
  IC50: > 10000 nM
[3]
  IC50: 220 nM
[4]
  IC50: 720 nM
[5]
  IC50: 52 nM
[6]
  IC50: > 10000 nM
[7]
  IC50: 30 nM

— ChEMBL document CHEMBL4808217, “Design, Synthesis, and Characterization of 4-Aminoquinazolines as Potent Inhibitors of the G Protein-Coupled Receptor Kinase 6 (GRK6) for the Treatment of Multiple Myeloma” (J Med Chem, 2021)
